# Experimental data taken from publication PMC6482174, “Fragment-based screening identifies inhibitors of ATPase activity and of hexamer formation of Cagα from the Helicobacter pylori type IV secretion system” (Scientific Reports, 2019).
# Experiments:
# [1] = test system: IL-8 production by AGS cells upon co-cultivation with H. pylori; experiment: IL-8 induction in AGS cells co-cultivated with H. pylori (ELISA); format: cell-based, Helicobacter pylori; conditions: 200 μM
# Text: (§1) Finally, we assessed whether molecule 1G2 or its derivates impact the functionality of the T4SS in vivo. To this effect, we tested their impact on the interaction of H. pylori strain 26695 with gastric adenocarcinoma (AGS) cells. […] We then tested the effects of these molecules in two commonly used assays for downstream effects of T4SS function: IL-8 production and CagA phosphorylation. […] In contrast, derivates 1G2#1 to #6 have no effect on IL-8 production. Similarly, none of the molecules reduces the tyrosine phosphorylation of the T4SS-translocated virulence factor CagA, which is generally used as an alternative assay to measure T4SS function (Supplementary Fig. 8). […] This observation may be due to partial inhibition of T4SS function by 1G2 that is more readily quantifiable in the IL-8 production assay as compared to the CagA phosphorylation assay.
# Figure 6 Molecule 1G2 decreases IL-8 induction in co-cultivated AGS cells. H. pylori 26695 without and after pre-incubation with 1G2 and its derivatives for […]. AGS cells were then co-cultured with H. pylori overnight and IL-8 induction was measured by ELISA. The induction of IL-8 by the wild type was calculated as 100% (WT), induction of IL-8 by the ΔcagV strain was used as negative control. The data represent the results from three experiments. […]
# [2] = test system: tyrosine phosphorylation of the T4SS-translocated virulence factor CagA; experiment: CagA transfer into AGS cells / CagA tyrosine phosphorylation (western blot); format: cell-based, Helicobacter pylori; conditions: H. pylori pre-incubated with molecule, AGS infection
# Text: as §1
# Preceding the infection, an overnight culture of H. pylori was pre-incubated with 1G2 and its derivates for 30 min. AGS cells at 6 × 10^5 cells/well density in 6-well plates were infected with the pre-treated cultures of H. pylori for 3–6 h at a multiplicity of infection of 100:1. […]
# Western blot analyses were reproduced four times and intensities of the CagAPY signals were quantified (Image Lab TM Software) and normalized using anti -b-actin signals. […]
# Cagα ATPase activity = Cagα ATPase activity (Helicobacter pylori, UniProt G5EB02); experiment: Malachite green ATPase activity assay; format: biochemical; conditions: for Mechanism of inhibition: inhibitor 0 to 500 μM, ATP varied, only Vmax affected, Km constant
# Cagα ATPase activity, sequence (G5EB02 entry or part of it): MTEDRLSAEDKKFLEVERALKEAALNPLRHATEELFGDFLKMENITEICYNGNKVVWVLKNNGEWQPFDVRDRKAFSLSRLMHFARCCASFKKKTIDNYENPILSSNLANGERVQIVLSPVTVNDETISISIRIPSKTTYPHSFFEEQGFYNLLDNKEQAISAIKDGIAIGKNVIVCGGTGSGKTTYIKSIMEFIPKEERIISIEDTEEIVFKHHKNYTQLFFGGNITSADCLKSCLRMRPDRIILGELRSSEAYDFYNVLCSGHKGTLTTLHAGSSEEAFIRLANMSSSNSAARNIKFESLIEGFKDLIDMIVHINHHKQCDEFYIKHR
# Experimental: We used a Malachite green assay to measure the release of inorganic phosphate from ATP to assess whether the 16 binding fragments impact the enzymatic activity of Cagα. […] Therefore, the mechanism of inhibition by molecules 1G2 and 1G2#4 is non-competitive.
# The ATPase activity was quantified using a malachite green binding assay. The 100 μL reaction mixtures contained 25 mM HEPES (pH 7.5), 100 mM NaCl, 60 nM of enzyme and 200 µM of MgCl2 with different concentrations of ATP (0 µM–320 µM) to determine kinetic parameters. The reaction mixtures were incubated for 30 min at 30 °C and then 40 μL of malachite green assay mixture was added. The formation of the blue phosphomolybdate-malachite green complex was in linear relation to the amount of released inorganic phosphate and measured at 610 nm. To study the mechanism of inhibition, the concentrations of inhibitors were varied between 0 and 500 μM with different concentrations of ATP (0–40 μM). Initial velocity data were fit using nonlinear regression analysis to each of the equations describing partial and full models of competitive, uncompetitive, non-competitive, and mixed inhibition using the Enzyme Kinetics Module of SigmaPlot (SigmaPlot version 11.0 software). On the basis of the analysis of fits through “goodness-of-fit” statistics, the full non-competitive inhibition model was determined with the equation ν = Vmax/[(1 + [I]/Ki) × (1 + Km/[S])], where [S] = [ATP], [I] = [1G2].
# IC50 values were determined by incubating different concentrations of molecules (10–1,000 µM; from stocks of 200 mM) with enzyme in 25 mM HEPES (pH 7.5) and 100 mM NaCl. Mixtures were incubated with inhibitors for 15 min, followed by addition of ATP and incubation for 30 min at 37 °C. The reactions were stopped by addition of 40 µl malachite green solution and the inorganic phosphate released was determined at 610 nm. Data were plotted as 1/rate versus inhibitor concentration for each substrate concentration and a linear fit was calculated by non-linear regression using SigmaPlot (version 11.0).
# H. pylori 26695 = experiment: H. pylori growth on solid agar media (Whatman paper disks); format: cell-based, Helicobacter pylori; conditions: 72 h
# Text: as §1
# AGS cell viability was monitored using Cell Proliferation Reagent WST-1 (Sigma). To evaluate the sensitivity of H. pylori to 1G2 and its derivates, freshly harvested bacteria were spread on a 150-mm agar plate. Increasing concentrations of compounds (50–500 μM) were spotted onto Whatman paper disks and growth was observed after 72 h incubation at 37 °C under microaerophilic conditions and compared to antibiotics (50–250 μM).
# Supplementary Figure 6. Effects of molecule 1G2 and its derivates on H. pylori growth. […]
SMILES,Effect on IL-8 production (in words) [1],Effect on tyrosine phosphorylation of CagA [2],IC50 (Cagα ATPase activity) [µM],Mechanism of inhibition (Cagα ATPase activity),"IL-8 production, of the control ([1]; wild type without molecule = 100%)",Effect on growth of H. pylori on solid agar media (H. pylori 26695; concentrations up to 500 μM),Effect on growth of H. pylori (control antibiotic) (H. pylori 26695; several concentrations on Whatman paper disks)
Cc1ccc(Oc2ccc(C(=O)O)cc2)nc1 [1G2#4],no effect,no effect,81.9,non-competitive,,,
O=C(O)c1ccc(Oc2ccccn2)cc1 [1G2],,did not observe an effect,196,non-competitive,about 50%,no negative effect,
"O=C(N[C@H](CO)[C@H](O)c1ccc([N+](=O)[O-])cc1)C(Cl)Cl [chloramphenicol, reference compound]",,,,,,,inhibition of growth
